Columns and labels:
Format in all cases: in vivo
Avena strigose = assay: Control of Avena strigose weed at different application rates (Example 8)
From the text: The effect of application of asulam was observed on the growth of Avena strigose weed at 28, 35 and 49 DAA (days after application) at different application rates. The percentage (%) control of weeds has been evaluated and disclosed in Table 8.

Bidens pilosa = assay: Control of weeds at post-emergence stage (Example 10)
From the text: (§1) The effect of application of asulam was observed on the growth of weeds at post-emergence stage for different application rates. The percentage (%) control of weeds has been evaluated and disclosed in Table 10.

Brachiaria plantaginea = assay: as above
From the text: as §1

Cynodon dactylon = assay: as above
From the text: as §1

Digitaria nuda = assay: as above
From the text: as §1

Ipomoea hederifolia = assay: Control of Ipomoea hederifolia weed by asulam alone, with adjuvant, with additional herbicide (Example 1); details: 4500 g a.i/ha
Description: The effect of application of asulam alone, asulam along with an adjuvant, and asulam along with an additional herbicide was observed on the growth of Ipomoea hederifolia weed at 42, 49, 56 and 63 DAA (days after application). The percentage (%) control of weeds was evaluated to assess the efficacy of the compositions and the same has been disclosed in Table 1. Untreated control was also compared, wherein no herbicidal composition was applied and thus, no control of weeds was observed.

Raphanus raphanistrum = assay: Control of Raphanus raphanistrum weed at different application rates (Example 7)
From the text: The effect of application of asulam was observed on the growth of Raphanus raphanistrum weed at 14, 21 and 28 DAA (days after application) at different application rates. The percentage (%) control of weeds has been evaluated and disclosed in Table 7.

COC(=O)NS(=O)(=O)c1ccc(N)cc1 [Asulam, asulam]
Control of Avena strigose (Avena strigose; 1200 g a.i/ha, 35 DAA): 84%
Control of Avena strigose (Avena strigose; 1200 g a.i/ha, 49 DAA): 81%
Control of Avena strigose (Avena strigose; 1500 g a.i/ha, 28 DAA): 86%
Control of Avena strigose (Avena strigose; 1500 g a.i/ha, 35 DAA): 89%
Control of Avena strigose (Avena strigose; 1500 g a.i/ha, 49 DAA): 89%
Control of Avena strigose (Avena strigose; 1800 g a.i/ha, 28 DAA): 96%
Control of Avena strigose (Avena strigose; 1800 g a.i/ha, 35 DAA): 99%
Control of Avena strigose (Avena strigose; 1800 g a.i/ha, 49 DAA): 99%
Control of Avena strigose (Avena strigose; 2250 g a.i/ha, 28 DAA): 95%
Control of Avena strigose (Avena strigose; 2250 g a.i/ha, 35 DAA): 100%
Control of Avena strigose (Avena strigose; 2250 g a.i/ha, 49 DAA): 100%
Control of Avena strigose (Avena strigose; 2500 g a.i/ha, 28 DAA): 98%
Control of Avena strigose (Avena strigose; 2500 g a.i/ha, 35 DAA): 100%
Control of Avena strigose (Avena strigose; 2500 g a.i/ha, 49 DAA): 100%
percentage (%) control of weeds (Bidens pilosa; 1000 g a.i/ha, 28 DAA): 100%
percentage (%) control of weeds (Bidens pilosa; 1000 g a.i/ha, 35 DAA): 100%
percentage (%) control of weeds (Bidens pilosa; 1000 g a.i/ha, 49 DAA): 100%
percentage (%) control of weeds (Bidens pilosa; 1500 g a.i/ha, 28 DAA): 100%
percentage (%) control of weeds (Bidens pilosa; 1500 g a.i/ha, 35 DAA): 100%
percentage (%) control of weeds (Bidens pilosa; 1500 g a.i/ha, 49 DAA): 100%
percentage (%) control of weeds (Bidens pilosa; 1800 g a.i/ha, 28 DAA): 94%
percentage (%) control of weeds (Bidens pilosa; 1800 g a.i/ha, 35 DAA): 97%
percentage (%) control of weeds (Bidens pilosa; 1800 g a.i/ha, 49 DAA): 97%
percentage (%) control of weeds (Bidens pilosa; 2250 g a.i/ha, 28 DAA): 93%
percentage (%) control of weeds (Bidens pilosa; 2250 g a.i/ha, 35 DAA): 95%
percentage (%) control of weeds (Bidens pilosa; 2250 g a.i/ha, 49 DAA): 94%
percentage (%) control of weeds (Brachiaria plantaginea; 1800 g a.i/ha, 28 DAA): 92%
percentage (%) control of weeds (Brachiaria plantaginea; 1800 g a.i/ha, 35 DAA): 92%
percentage (%) control of weeds (Brachiaria plantaginea; 1800 g a.i/ha, 49 DAA): 83%
percentage (%) control of weeds (Brachiaria plantaginea; 2250 g a.i/ha, 28 DAA): 95%
percentage (%) control of weeds (Brachiaria plantaginea; 2250 g a.i/ha, 35 DAA): 88%
percentage (%) control of weeds (Brachiaria plantaginea; 2250 g a.i/ha, 49 DAA): 73%
percentage (%) control of weeds (Brachiaria plantaginea; 2500 g a.i/ha, 28 DAA): 93%
percentage (%) control of weeds (Brachiaria plantaginea; 2500 g a.i/ha, 35 DAA): 92%
percentage (%) control of weeds (Brachiaria plantaginea; 2500 g a.i/ha, 49 DAA): 100%
percentage (%) control of weeds (Cynodon dactylon; 2400 g a.i/ha, 28 DAA): 94%
percentage (%) control of weeds (Cynodon dactylon; 2400 g a.i/ha, 35 DAA): 97%
percentage (%) control of weeds (Cynodon dactylon; 2400 g a.i/ha, 49 DAA): 99%
percentage (%) control of weeds (Cynodon dactylon; 2800 g a.i/ha, 28 DAA): 96%
percentage (%) control of weeds (Cynodon dactylon; 2800 g a.i/ha, 35 DAA): 97%
percentage (%) control of weeds (Cynodon dactylon; 2800 g a.i/ha, 49 DAA): 100%
percentage (%) control of weeds (Cynodon dactylon; 3200 g a.i/ha, 28 DAA): 94%
percentage (%) control of weeds (Cynodon dactylon; 3200 g a.i/ha, 35 DAA): 94%
percentage (%) control of weeds (Cynodon dactylon; 3200 g a.i/ha, 49 DAA): 96%
percentage (%) control of weeds (Cynodon dactylon; 4000 g a.i/ha, 28 DAA): 95%
percentage (%) control of weeds (Cynodon dactylon; 4000 g a.i/ha, 35 DAA): 96%
percentage (%) control of weeds (Cynodon dactylon; 4000 g a.i/ha, 49 DAA): 100%
percentage (%) control of weeds (Digitaria nuda; 2800 g a.i/ha, 28 DAA): 99%
percentage (%) control of weeds (Digitaria nuda; 2800 g a.i/ha, 35 DAA): 99%
percentage (%) control of weeds (Digitaria nuda; 2800 g a.i/ha, 49 DAA): 99%
percentage (%) control of weeds (Digitaria nuda; 3200 g a.i/ha, 28 DAA): 96%
percentage (%) control of weeds (Digitaria nuda; 3200 g a.i/ha, 35 DAA): 100%
percentage (%) control of weeds (Digitaria nuda; 3200 g a.i/ha, 49 DAA): 100%
percentage (%) control of weeds (Digitaria nuda; 4000 g a.i/ha, 28 DAA): 93%
percentage (%) control of weeds (Digitaria nuda; 4000 g a.i/ha, 35 DAA): 94%
percentage (%) control of weeds (Digitaria nuda; 4000 g a.i/ha, 49 DAA): 94%
Control of Ipomoea hederifolia (Ipomoea hederifolia; 42 DAA): 13.8%
Control of Ipomoea hederifolia (Ipomoea hederifolia; 49 DAA): 11.3%
Control of Ipomoea hederifolia (Ipomoea hederifolia; 56 DAA): 8.8%
Control of Raphanus raphanistrum (Raphanus raphanistrum; 1800 g a.i/ha, 14 DAA): 61%
Control of Raphanus raphanistrum (Raphanus raphanistrum; 1800 g a.i/ha, 21 DAA): 69%
Control of Raphanus raphanistrum (Raphanus raphanistrum; 1800 g a.i/ha, 28 DAA): 82%
Control of Raphanus raphanistrum (Raphanus raphanistrum; 2250 g a.i/ha, 14 DAA): 63%
Control of Raphanus raphanistrum (Raphanus raphanistrum; 2250 g a.i/ha, 21 DAA): 73%
Control of Raphanus raphanistrum (Raphanus raphanistrum; 2250 g a.i/ha, 28 DAA): 84%
Control of Raphanus raphanistrum (Raphanus raphanistrum; 2500 g a.i/ha, 14 DAA): 66%
Control of Raphanus raphanistrum (Raphanus raphanistrum; 2500 g a.i/ha, 21 DAA): 77%
Control of Raphanus raphanistrum (Raphanus raphanistrum; 2500 g a.i/ha, 28 DAA): 88%

Reference: US20260248134A1, “A METHOD FOR CONTROLLING WEEDS” (UPL MAURITIUS LIMITED, priority 2023, published 2026)
